Consider eleven compounds from patent US20250042884A1, “3-ARYLOXYL-3-FIVE-MEMBERED HETEROARYL PROPYLAMINE COMPOUND AND USE THEREOF” (Shanghai Leado Pharmatech Co. Ltd., priority 2018, published 2025).

This assay has as its target TRPA1 (Mus musculus (Mouse), UniProt Q8BLA8). Put plainly: IonWorks Barracuda (IWB) automated patch clamp detection of TRPA1 inhibitory activity. The format is cell-based. The following applies: HEK293 cells stably expressing TRPA1; current induced by AITC; read-out: IC50 (μM), inhibitory activity on TRPA1 in the automated patch clamp detection test. The procedure:
The inhibitory activity of some compounds in the examples of the present invention (as shown in Table 1) on transient receptor potential channel protein TRPA1 was tested in this example. The compound of formula A (WO2010075353) was used as a positive control compound: […]
Ion Works Barracuda (IWB) automated patch clamp detection was used as test method: HEK293 cells stably expressing TRPA1 were placed in DMEM medium containing 15 μg/mL Blasticidin S HCl, 200 μg/mL Hygromycin B and 10% FBS in the T175 culture flask, and cultured in 37° C., 5% CO2 incubator. When the cell density reached about 80%, the culture medium was removed, rinsed with phosphate buffered saline (PBS) without calcium and magnesium. 3 mL of Trypsin was added to digest for 2 min, 7 mL of culture medium was added to terminate the digestion. The cells were collected to 15 mL centrifuge tube and centrifuged at 800 rpm for 3 min. After the supernatant was removed, the cells were added to appropriate volume of extracellular fluid for re-suspending, and the cell density was controlled at 2-3×10^6/mL for IWB experiment. Extracellular fluid formulation (in mM): 140 NaCl, 5 KCl, 1 MgCl2, 10 HEPES, 0.5 EGTA, 10 Glucose (pH 7.4); intracellular fluid formulation (in mM): 140 CsCl, 10 HEPES, 5 EGTA, 0.1 CaCl2, 1 MgCl2 (pH 7.2). 28 mg/mL of amphotericin B was freshly prepared with DMSO on the day of experiment, and then final concentration of 0.1 mg/mL was prepared with intracellular fluid.
Population patch clamp (PPC) plate was used in IWB experiment. The entire detection process was automatically carried out by the instrument. Extracellular fluid was added into 384 wells of PPC plate, and 6 µL of the intracellular fluid was added into plenum (under the PPC plate), 6 µL of cell fluid was added for sealing test, and finally the intracellular fluid in plenum was replaced with amphotericin B-containing intracellular fluid to establish a whole-cell recording mode after perforating sealed cells. The sampling frequency for recording TPRA1 current was 10 kHz, the cells were clamped at 0 mV, the voltage stimulation command (channel protocol) was a ramp voltage from −100 mV to +100 mV for 300 ms. This voltage stimulation was applied every 10 s, mTRPA1current was induced by 300 µM AITC.
Data recording and current amplitude measurement export were carried out by IWB software (version 2.5.3, Molecular Devices Corporation, Union City, CA). No statistics was recorded for holes with sealing impedance lower than 20 MQΩ. The original current data was corrected by software for leakage reduction. TRPA1 current amplitude was measured at +100 mV. […] If IC50 value of HC030031 exceeded 3 times the average IC50 value previously obtained on each plate, it would be re-tested. The dose-effect curve of compounds and IC50 were fitted and calculated by GraphPad Prism 5.02 (GraphPad Software, San Diego, CA).
Some compounds in the examples of the present invention were detected by lonWorks Barracuda (IWB) automated patch clamp detection method for IC50 inhibitory activity.
Background: Patch clamp records ionic current or voltage across a cell membrane.

TRPA1, sequence (Q8BLA8 whole entry): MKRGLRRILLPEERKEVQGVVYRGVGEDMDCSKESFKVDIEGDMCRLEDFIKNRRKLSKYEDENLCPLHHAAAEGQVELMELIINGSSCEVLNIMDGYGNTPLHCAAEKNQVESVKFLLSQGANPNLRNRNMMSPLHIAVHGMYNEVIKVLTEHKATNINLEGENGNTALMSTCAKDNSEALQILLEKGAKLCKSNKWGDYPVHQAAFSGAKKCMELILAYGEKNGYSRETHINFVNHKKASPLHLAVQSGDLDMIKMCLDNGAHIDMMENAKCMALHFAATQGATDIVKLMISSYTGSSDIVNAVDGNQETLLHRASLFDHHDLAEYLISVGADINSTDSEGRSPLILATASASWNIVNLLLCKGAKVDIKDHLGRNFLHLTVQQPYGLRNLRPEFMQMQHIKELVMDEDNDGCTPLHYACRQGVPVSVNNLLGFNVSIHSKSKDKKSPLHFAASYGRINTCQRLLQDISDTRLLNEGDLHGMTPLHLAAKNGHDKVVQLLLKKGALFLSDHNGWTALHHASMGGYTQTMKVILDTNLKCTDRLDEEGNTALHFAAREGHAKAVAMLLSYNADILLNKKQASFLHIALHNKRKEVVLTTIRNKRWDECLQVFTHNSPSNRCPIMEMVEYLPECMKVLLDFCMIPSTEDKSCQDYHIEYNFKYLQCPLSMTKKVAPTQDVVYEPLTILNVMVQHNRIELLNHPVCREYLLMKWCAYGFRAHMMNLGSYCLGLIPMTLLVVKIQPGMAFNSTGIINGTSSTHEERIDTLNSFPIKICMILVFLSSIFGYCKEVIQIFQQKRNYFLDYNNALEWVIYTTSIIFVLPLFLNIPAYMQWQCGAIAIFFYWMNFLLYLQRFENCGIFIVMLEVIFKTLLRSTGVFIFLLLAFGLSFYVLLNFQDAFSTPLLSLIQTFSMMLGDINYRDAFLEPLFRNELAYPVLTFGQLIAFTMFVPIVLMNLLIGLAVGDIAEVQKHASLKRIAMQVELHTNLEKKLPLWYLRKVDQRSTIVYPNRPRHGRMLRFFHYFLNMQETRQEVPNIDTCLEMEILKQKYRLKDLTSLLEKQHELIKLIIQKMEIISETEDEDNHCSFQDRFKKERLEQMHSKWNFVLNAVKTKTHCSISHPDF

By IC50 is commonly meant the midpoint of a concentration-inhibition curve. In the case of `CNCC[C@@H](Oc1cccc2ccoc12)c1ccccc1` [Compound C2, (R)-3-(benzofuran-7-yloxy)-N-methyl-3-phenylpropyl-1-amine], the IC50 was 11 to 20 µM.

Consider `CNCC[C@@H](Oc1cccc2c1CCC2)c1cccs1` [Compound I-9, (R)-3-((2,3-dihydro-1H-inden-4-yl)oxy)-N-methyl-3-(thienyl-2yl)propyl-1-amine], for which the IC50 was in the range of 6 to 10 µM. As for `CNCC[C@@H](Oc1cccc2ccoc12)c1ccsc1` [Compound I-5, (R)-3-(benzofuran-7-yloxy)-N-methyl-3-(thiophen-3-yl)propyl-1-amine], the figure is 1 to 5 µM; as for `C[C@H]1CCCN1c1ccc(-c2csc(NC(=O)Cn3cnc4c3c(=O)n(C)c(=O)n4C)n2)cc1F` [Compound of formula A], 51 to 100 µM. Turning to `CN(C)CC[C@@H](Oc1cccc2ccoc12)c1cccs1` [Compound I-3, (R)-3-(benzofuran-7-yloxy)-N,N-dimethyl-3-(thiophen-2-yl)propyl-1-amine], the IC50 was in the range of 1 to 5 µM. Turning to `CNCC[C@@H](Oc1cccc2ccccc12)c1cccs1` [R-duloxetine], the IC50 was 21 to 50 µM. Regarding `CNCC[C@@H](Oc1cccc2ccoc12)c1ccco1` [Compound I-8, (R)-3-(benzofuran-7-yloxy)-3-(furan-2-yl)-N-methylpropyl-1-amine], the IC50 lay in the range of 1 to 5 µM. Regarding `NCC[C@@H](Oc1cccc2ccoc12)c1cccs1` [Compound I-2, (R)-3-(benzofuran-7-yloxy)-3-(thiophen-2-yl)propyl-1-amine], the 50% inhibitory concentration (IC50) lay in the range of 6 to 10 µM.

For the compound `CNCC[C@@H](Oc1cccc2occc12)c1cccs1` [Compound I-11, (R)-3-(benzofuran-4-yloxy)-N-methyl-3-(thiophen-2-yl)propyl-1-amine], the IC50 was in the range of 6 to 10 µM. To `CNCC[C@@H](Oc1cccc2ccoc12)c1ccc(C)s1` [Compound I-6, (R)-3-(benzofuran-7-yloxy)-N-methyl-3-(5-methylthiophen-2-yl)propyl-1-amine] belongs 6 to 10 µM; to `CCNCC[C@@H](Oc1cccc2ccoc12)c1cccs1` [Compound I-4, (R)-3-(benzofuran-7-yloxy)-N-ethyl-3-(thiophen-2-yl)propyl-1-amine], 1 to 5 µM.
